Source: US11160788B2, “Caspase-1 inhibition and uses thereof for prevention and treatment of neurological conditions” (priority 2016, dated 2021)
“Also recorded” adds a separate entry of the source.

Experiments:
[1] = system: serum deprived human primary neurons; assay: Neuritic beading in serum-deprived human primary neurons; assay type: cell-based
Procedure: FIG. 13: VX-765 protects CNS primary human neurons (HPN) against APP- or serum deprivation-mediated neuritic beading. (a) MTT assay with increasing dose of VX-765. (b) Fluorescent micrographs showing homogeneous distribution of EGFP in normal neurons and neuritic beading in APP-transfected neurons. (c) Percentage beading in APP-transfected or serum-deprived neurons treated 1 h before and continuously with stressor (Pre-treatment) or 48 h after stressor (post-beading treatment) with 25 or 50 μM VX-765 or with 5 μM Z-YVAD-fmk Casp1 peptide inhibitor. […] (d-e) HPN secreted or cellular Aβ42/total Aβ38+40+42 (d) (F(3,4)=12.73, p=0.0163, ANOVA, Dunnett's post-hoc compared to Serum+DMSO, *p<0.05), and (e) levels of secreted II-1β, IFN-γ, TNF-α, and II-6 from untreated (+S), serum deprived (−S), or serum-deprived human neurons treated with 25 or 50 μM VX-765.
EGFP-labeled human primary neurons were either APP^WT transfected or serum deprived. Two treatment strategies were employed to determine VX-765's effects on neuronal degeneration: our Pre-Treatment strategy looked at whether VX-765 could block neuronal degeneration when administered 1 hr prior to APP^WT transfection or serum deprivation, while our Reversal Treatment strategy looked at whether VX-765 could reverse degenerative effects when administered 48 hrs after APP^WT transfection or serum deprivation. Neurons displaying beaded morphology were counted with live imaging and measured as a percentage of the total number of eGFP+ neurons from 24-72 hrs after treatment. The irreversible caspase-1 inhibitor YVAD-fmk was used as positive control in our experiments. Results were obtained from averaging counts for at least 100 eGFP+ neurons per experiment in three independent neuron preparations.

[2] = biological target: T1, mouse recombinant Casp1 (Mus musculus, UniProt P29452); assay: Caspase inhibition IC50, mouse recombinant Casp1; assay type: biochemical; conditions: read-out: IC50 against mouse Casp1
T1 sequence (P29452 119-296 limits assumed): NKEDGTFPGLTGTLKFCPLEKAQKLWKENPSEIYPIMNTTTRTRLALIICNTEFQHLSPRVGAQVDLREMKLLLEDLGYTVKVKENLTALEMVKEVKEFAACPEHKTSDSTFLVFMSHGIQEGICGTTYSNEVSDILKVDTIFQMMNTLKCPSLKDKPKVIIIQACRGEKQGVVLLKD
T1 sequence (P29452 315-402 limits assumed): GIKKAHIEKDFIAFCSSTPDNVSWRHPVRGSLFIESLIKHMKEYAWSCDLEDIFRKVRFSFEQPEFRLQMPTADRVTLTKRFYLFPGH
Procedure: FIG. 14: Selectivity and blood brain permeability of VX-765 and VRT-043198. (a-b) IC50 of VX-765 (a) and VRT-043198 (b) against human Casp1-10. (c-d) IC50 of VX-765 (c) and VRT-043198 (d) against mouse Casp1 and Casp11. (e) Blood brain barrier permeability and presence of VX-765 and VRT-043198 in 3 wild type and 4 J20 mice brain cortex and hippocampus and in plasma. Ratios of brain levels to plasma levels are calculated.

[3] = system: J20 mice; assay: ELISA of II-1β and other cytokines, treated symptomatic J20 mice; assay type: in vivo, mouse
Text: FIG. 10: VX-765 reverses neuroinflammation in J20 mice. (a) Iba-1 positive microglia immunohistographs in the stratum lacunosum molecular area of the hippocampus and S1 of cortex (Scale bar=50 μm). (b) Stereological quantification of Iba-1^+ microglia for WT+Vehicle (n=6), J20+Vehicle (n=5), and J20+VX-765 (n=4) in the hippocampus from the pyramidal cell layer to the stratum lacunosum molecular layer (F(2,11)=58, p<0.0001) and cortex (F(2,11)=39.95, p<0.0001, ANOVA, Dunnett's post-hoc compared to J20+Vehicle, ***p<0.001). (c) Average percentage distribution of morphological microglial subtypes 1 (black (lowermost) bar), 2 (light grey bar), 3 (dark grey bar) and 4 (black (uppermost) bar). (d) II1-β pg/mg levels measured by ELISA in pre-treated J20 at 5 months of age and in treated WT and J20 8 months of age. (e) Astroglial GFAP^+ immunohistographs.
FIG. 18: ELISA measures of cytokines in vehicle-treated WT and J20 mice and VX-765-treated J20 mice. (a) Plasma levels of II-1β in mice after T3. (b) Cytokine levels in vehicle-treated WT and J20 and in VX-765-treated J20 brain hippocampi and cortex. (c) GFAP immunostaining density in vehicle-treated WT (n=6) and J20 (n=5) and in VX-765-treated J20 (n=4) brain hippocampi (F(2,12)=5.234, p=0.0232, ANOVA, Dunnett's post-hoc compared to WT+Vehicle, *p<0.05) and cortex. (d) Western blots and quantitative analyses of GFAP in vehicle-treated WT and J20 and in VX-765-treated J20 brain hippocampi and cortex.
(§1) To assess AD-like pathology, immunohistochemical analyses were performed to detect amyloid deposition (anti-AβF25276)^5,6, microglial (Iba1) activation^7, astrogliosis (GFAP), synaptophysin protein levels on coronal brain sections. Multiplex MSD ELISA was used to assess Aβ levels and 38,40, and 42 subtypes, and II-1β brain levels. RT-PCR was used to assess levels of human APP^Sw/Ind.

[4] = system: J20 mice; assay: Synaptophysin immunostaining, preventive treatment of J20 mice; assay type: in vivo, mouse
Text: FIG. 4: Immunostainings of mice hippocampus at 4 months of age (PREVENTION GROUP) with microglial Iba-1, astrocyte GFAP, and synaptic synaptophysin antibodies.
FIG. 27: Synaptophysin immunopositive staining in the hippocampus of mice brains at different times of washout. All sections were immunostained together and automatically with Dako immunostainer.
We directly tested whether pre-symptomatic inhibition of inflammation in a mouse genetic model of Alzheimer disease can stem the progression of memory and behavioral deficits, and Alzheimer disease-like pathology. The J20 amyloid precursor protein Swedish/Indiana mutant mouse was treated at 2 months of age for a one month period with 50 mg/Kg Caspase-1 inhibitor VX-765 (FIG. 22a).

[5] = system: J20 mice; assay: Synaptophysin immunostaining and synaptic gene mRNA, treated symptomatic J20 mice; assay type: in vivo, mouse; conditions: hippocampus, immunohistochemistry, 50 mg/kg, 8 month old
Text: FIG. 12: VX-765 reverses loss of synaptophysin immunohistological staining in J20 mice. (a) Immunohistological micrographs from pre-treated 5 month old J20 and 8 month old vehicle or VX-765 treated WT or J20 mouse hippocampus and cortex. (b) Quantitative analysis comparing synaptophysin immunostaining density between WT+Vehicle (n=4), J20+Vehicle (n=4), and J20+VX-765 (n=4) in the hippocampus (F(2,9)=7.974, p=0.0102, ANOVA, Tukey's post-hoc, * p<0.05) and cortex.
as §1

With CCO[C@@H]1OC(=O)C[C@@H]1NC(=O)[C@@H]1CCCN1C(=O)[C@@H](NC(=O)c1ccc(N)c(Cl)c1)C(C)(C)C [VX-765, (S)-1-((S)-2-{[1-(4-amino-3-chloro-phenyl)-methanoyl]-amino}-3,3-dimethyl-butanoyl)-pyrrolidine-2-carboxylic acid ((2R,3S)-2-ethoxy-5-oxo-tetrahydro-furan-3-yl)-amide] the neuritic beading ([1]; pre-treatment 1 h before serum deprivation) was “particularly effective in reducing neuritic beading at 72 hrs; also recorded: protected against, albeit less strongly”, the neuritic beading ([1]; reversal treatment 48 hrs after serum deprivation) was “neither YVAD nor VX-765 were able to reverse neuritic beading” and the IC50 [2] was 52.1 nM. For the same compound, the “TNFα protein level in hippocampi” value [3] was “returned to normal”, the “II-1β level in hippocampus” value ([3]; 50 mg/kg, after Treatment 3) was “reduced after VX-765 treatment” and the “II-1β level in plasma” value ([3]; after Treatment 3) was “No changes were seen”. The “other inflammatory protein levels (TNF-α, KC-GRO, IFN-γ)” value ([3]; brain hippocampi and cortex) was “No significant difference”, the synaptophysin levels ([4]; 4 month old J20 brains) was “impressive preservation of synaptophysin levels” and the synaptophysin immunostaining ([4]; hippocampus, different times of washout) was “partly re-established”. For the same compound, the synaptophysin levels [5] was “increased synaptophysin levels; also recorded: significantly increased and returned to normal levels”.
